Results: publication PMC11251039, “Harnessing cholesterol uptake of malaria parasites for therapeutic applications” (EMBO Molecular Medicine, 2024)
Where “and” joins values, the source holds several entries; their conditions need not be identical. Equal values may be shown once. Read-outs that look alike come from different tables or passages of the source.

How the values were obtained:
[1] = test system: P. berghei liver stage parasites; test: P. berghei liver stage parasite size and number (fluorescence microscopy, coverslips); type: cell-based, Plasmodium berghei; settings: for Normalised mean size of liver stage parasites, percentage of the solvent control: per coverslip, source data Fig. 3C
Protocol: Uninfected wells served as a control for background luminescence. […] No other manipulations were performed.
(§1) Appendix Fraser/Curtis et al.
For measurement of parasite size and number, 20,000 Huh7 cells were seeded onto collagen-coated coverslips on the day prior to infection. As above, 10,000 – 20,000 sporozoites were added per slide, allowed to invade for 60 minutes after centrifugation, and then incubated for […]
Infected cells were fixed with 3% paraformaldehyde in PBS, permeabilized with 0.3% v/v Triton X-100, and labelled with 1:1,000 polyclonal chicken anti-GFP (Abcam ab13970), 1:2,000 goat anti-chicken Alexa […]
intrinsic GFP fluorescence could be detected, as well as Fluoromount-G® containing 4′,6-diamidino-2-phenylindole (DAPI; Southern Biotech), to stain parasite and host cell nuclei.
Images were collected on a Zeiss Axio Observer Z2 microscope with a Zeiss AxioCam MRm at 200× or 400× (for quantification) or 630× (for cell images) magnification, with a resolution of […], 163 nm or 102 nm per pixel respectively. Alexa Fluor™ 546 fluorescence was detected at 546/13 nm excitation and 675/35 nm emission. […]
fluorescence was detected at 470/20 nm excitation and 525/25 nm emission. DAPI fluorescence (nucleic acid) was detected at 359/24 nm ex and 445/25 nm em. For quantification, all cells on each coverslip were imaged under the same settings for each experiment. P. berghei liver stage size was measured as described (24) using Fiji ImageJ (25). Liver-stage parasites were identified and delineated in fluorescent images using defined threshold levels, and the identified fluorescent areas were used to measure parasite area. The number of parasites on each coverslip was also counted. […]
manipulations were performed.

[2] = Human hepatoma viability assay (CellTiter-Blue); type: cell-based; settings: human, replicate data points, read-out: Huh7 viability, dose-response data points (Figure 3F); for viability at 48 h, 0.137174 µM: 0.137174210 uM
In short: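 Huh7 cells (10,000/well) were seeded and treated the next day with serially diluted compound or DMSO, with media partially renewed with fresh dilutions over two days.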

[3] = test system: P. falciparum CAM3.II ring stages (0–3 h post invasion); test: Plasmodium falciparum ring stage survival assay, resistant strain; type: cell-based
Protocol: Following tight synchronisation using sorbitol and Percoll® floatation, ring stage CAM3.II and CAM3.IIREV parasites (0–3 h post invasion) at 1% parasitaemia and 2% haematocrit were incubated with 700 nM of compounds or solvent-only controls for exactly 6 h, before removing the drug, thoroughly washing in RPMI with HEPES, and returning to culture conditions for a further 66 h. Some cells were treated with 700 nM artesunate for 72 h as a no-growth control. DNA replication (indicating growth) was measured at the specified time using SYBR Safe DNA Stain. Microscope slide smears of each condition were stained with 10% v/v Giemsa and examined under a light microscope (×1000 magnification); with ‘viable’ (morphologically normal) and ‘non-viable’ (morphologically aberrant; vacuolated or pyknotic) parasites distinguished according to standard protocol (Witkowski et al, [2013]). Images were captured using a Leica ICC50 camera, with a resolution of 76 nm per pixel, and cropped from larger images using Fiji ImageJ.
as §1
Cells were detached from a flask using 0.25% Trypsin with 0.2 g/L EDTA (Sigma T4049) and washed with culture media containing no phenol red. Cells were incubated with a serial dilution of each compound, or media/DMSO alone. The protein synthesis inhibitor cycloheximide (Sigma 01810) at 10 µg/mL was used as a positive control to determine background absorbance. 5,000 cells were seeded in each well. After 96 hours, 0.45 mg/mL methylthiazolyldiphenyl-tetrazolium bromide (MTT; Sigma M2128) was added and incubated for a further two hours, before mixing 1.1:1 with 10% w/v sodium dodecyl sulfate (SDS) to solubilise crystals and freezing the plate at -18 °C to stop the assay. Plates were defrosted at room temperature and absorbance was read at 570 nm in an Infinite M1000 pro plate reader […]
Plasmodium falciparum Ring Stage Survival Assay
Ring stage survival assays were conducted according to standard protocols with some modifications (27, 28). CAM3.11 and CAM3.11REV parasites were sorbitol synchronised twice, 12 hours apart, and then incubated for a further 30 hours until the majority of the parasites were mature schizonts (with clearly separated nuclei). Pelleted RBCs were incubated at 37 °C with heparinised RPMI for 15 minutes, and then centrifuged over 75% Percoll® in PBS for 15 minutes at 1,000 g. Mature schizonts were collected, washed with warm RPMI, and cultured for exactly three hours with fresh uRBCs and culture media. After 3 hours, the cultures were sorbitol synchronised and incubated in duplicate with 700 nM of artesunate, PAYb076a, GGA5, HJB8a53, a DMSO solvent-only control or media alone for exactly six hours, before removing the drug, washing in RPMI, and returning to culture conditions. Samples of each cell suspension were transferred to a -18 °C freezer at the start of the assay (time = 0) or treated for the entire 72 hours with 700 nM artesunate to determine background fluorescence under no-growth conditions. After a further 66 hours of incubation (totalling 72 hours), cells were […]
resuspended, and a sample from each well was transferred to a fresh plate and frozen at -18 °C.
Microscope slide smears were made using the remaining cells and stained with 10% v/v Giemsa. Plates were thawed and SYBR Safe DNA Gel Stain (final concentration 1/10,000) diluted in lysis buffer (as above) was added for DNA detection at 490 nm excitation / 520 nm emission on a FLUOstar Optima fluorescence plate reader. Parasite proliferation and viability were also assessed using Giemsa-stained smears examined under a light microscope (1,000× magnification); with ‘viable’ and ‘non-viable’ (vacuolated or pyknotic) parasites distinguished according to standard protocol. Images were captured using a Leica ICC50 camera, with a resolution of 76 nm per pixel.
Growth inhibition data were normalised by subtracting background fluorescence, […]

## COc1cc(NC(C)CCCNC(=O)CCC(=O)O[C@H]2CC[C@H]3[C@@H]4CC=C5C[C@@H](O)CC[C@]5(C)[C@H]4CC[C@]23C)c2ncccc2c1 (stereo partly drawn) [C-17-PQ]
[1]; 0.3 µM, 48 h
  Reduction of parasite size (area) compared to untreated parasites: 48%
[1]; 0.3 μM, 48 h, listed as BC5B
  Normalised mean size of liver stage parasites, percentage of the solvent control: 47.88% and 39.55% and 51.73% and 68.26% and 63.53% and 38.56%
[1]; 3 µM, 48 h
  Reduction of parasite size (area) compared to untreated parasites: 90%
[1]; 0.3 or 3 µM, 48 h
  Parasite number per coverslip compared to the same concentration of primaquine: significantly lower
[2]; 0.015241580 uM
  viability at 48 h, 0.0152416 µM: 94.8%
[2]; 0.045724740 uM
  viability at 48 h, 0.0457247 µM: 94.9%
[2]
  viability at 48 h, 0.137174 µM: 95.3%
[2]; 0.411522630 uM
  viability at 48 h, 0.411523 µM: 94.5%

## CC(C)OC(=O)CCC(=O)O[C@H]1CC[C@H]2[C@@H]3CC=C4C[C@@H](O)CC[C@]4(C)[C@H]3CC[C@]12C [C-17-link]
[3]; 700 nM, 6 h treatment, 66 h further growth, CAM3.II resistant
  Ring stage survival, growth: did not significantly impact the growth
[3]; CAM3.11, replicate experiments, listed as HJB8a53
  Ring stage survival, individual data points (Figure 4C): 67.82 and 103.7 and 86.39 and 70.09

## COc1cc(NC(C)CCCNC(=O)CCC(=O)OC(C)C)c2ncccc2c1 (stereo not drawn) [PQ-link]
[2]; Huh7 hepatoma cells
  viability at 48 h, 0.137174 µM: 99.3%

## COc1cc(NC(C)CCCN)c2ncccc2c1 (stereo not drawn) [Primaquine, primaquine, reference compound]
[1]; 0.3 µM, 48 h
  Reduction of parasite size (area) compared to untreated parasites: not at 0.3 µM
[1]; 0.3 μM, 48 h
  Normalised mean size of liver stage parasites, percentage of the solvent control: 100% and 99.34% and 108% and 106.3% and 110.6% and 86.33%
[1]; 0.3 μM, Assay 2, first replicate column, individual data points
  Figure 3C - Individual Data Points (P. berghei liver stage parasite size, individual parasites): 43.02 and 107.9 and 92.89 and 48.67 and 95.55 and 31.33 and 39.11 and 132.2 and 73.2 and 29.42
[1]; 3 µM, 48 h
  Reduction of parasite size (area) compared to untreated parasites: 61%
